Source: ChEMBL document CHEMBL3879895, “Compositions and methods for treating ocular edema, neovascularization and related diseases” (2014)
Activity calls are given as the source filed them. The calls are words filed in the database; no cut-off is given here.

Tested on: Mus musculus
Test: Reduction of neovascular tufts in retina of rhodopsin/VEGF transgenic mouse at 3 to 10 mg/kg, sc bid administered for 7 days started on post natal day 14 measured on post natal day 21 by FITC-conjugated GSA-lectin staining-based fluorescence microscopy
Assay type: functional, organism-based

COC(=O)N[C@@H](Cc1ccccc1)C(=O)N[C@@H](Cc1ccc(NS(=O)(=O)O)cc1)c1csc(-c2csc(-c3cccs3)n2)n1
Activity: Active
